From patent publication US20240101548A1, “HYDROXAMATE COMPOUND, PREPARATION METHOD THEREFOR AND APPLICATION THEREOF” (SHENZHEN CHIPSCREEN BIOSCIENCES CO., LTD., priority 2020, published 2024) come the findings set out here.

Structures are written as SMILES. Some results are limits rather than exact numbers.

What all share (type): cell-based, human
Experiment [1] has as its system IL-10-induced JAK1/TYK2 signal pathway. Put plainly: IL-10-induced JAK1/TYK2 signal pathway STAT3-Luc reporter gene assay in U2OS cells. Conditions: Homo sapiens, U2OS, U2OS cells, STAT3-Luc reporter, IL-10 10 ng/mL; read-out: Half inhibition dose (IC50) on IL-10-induced JAK1/TYK2 signal pathway. The text has this:
Cytokine IL-10 is one of the main members of IL-10 family. The receptor that cytokine IL-10 binds to consists of two kinds of subunits, i.e., IL-10R1 and IL-10R2, which respectively couple with JAK1 and TYK2. After the coupling of IL-10 with its receptor, interaction of phosphorylation occurs between JAK1 and TYK2 to form STAT3 docking site for phosphorylation of STAT3. The phosphorylated STAT3 enters the nucleus and drives the transcription and expression of downstream genes.
The reporter gene plasmid STAT3-Luc Reporter used in the present invention has luciferase expression sequence as the reporter gene, upstream of which is a promoter sequence containing multiple STAT3 binding sites. When phosphorylated STAT3 induced by IL-10 signal pathway binds to the promoter of STAT3-Luc Reporter plasmid, luciferase is transcribed and expressed. The excitation fluorescence catalyzed by Luciferase can be detected after the addition of […] substrate, whose intensity can quantitively reflect the activation level of the signal pathway.
Human osteosarcoma cell line U20S was commercially available from American Type Culture Collection (ATCC), and relevant culture conditions referred to those from ATCC. It was known that such cell line could express IL-10R2, JAK1, TYK2 and STAT3, therefore, by exogenous expression of IL-10R1 gene, a complete IL-10 signal pathway could be established. The human IL-10R1 subunit overexpression plasmid pCMV3-IL10RA-EGFP was constructed by Shanghai Genechem Co., Ltd., and capable of simultaneously expressing enhanced green fluorescent protein. In the subsequent detection and calculation, the signal of green fluorescent protein in the tested sample was used as a reference for transfection efficiency calibration of the luciferase reporter gene signal. Reporter plasmid STAT3-Luc Reporter was commercially available from Ji Man Biotech (Shanghai) Co., Ltd.
X-tremeGENE 9 DNA Transfection Reagent (Roche) was used for the transfection of plasmid DNA into cells, Cell Culture Lysis 5× reagent (Promega) and Luciferase Assay System (Promega) were used in cell lysate preparation and enzyme-substrate reaction for luciferase reporter gene detection. Green fluorescent protein signal and luciferase reporter gene signal were both detected by Tecan Spark™ 10M multimode microplate reader. The inhibition rate of the tested compound on the IL-10 signal pathway reporter gene signal and the half inhibition dose IC50 were both calculated using Microsoft Excel and GraphPad Prism 7.00 software.
U2OS cell line was inoculated in 96-well plate with flat bottom at 5000 cells per well, and cultured overnight at 37° C. and 5% CO2 followed by plasmid transfection. Following the instructions and using X-tremeGENE 9 DNA Transfection Reagent, pCMV3-IL10RA-EGFP and STAT3-Luc Reporter plasmids were co-transfected into the inoculated U2OS cells. After 24 hours of transfection, the tested compound was added respectively for a final concentration of 0, 0.1, 0.3, 1, 3, 10, 30, 100, or 300 nM. After 6 hours of culture at 37° C. and 5% CO2, IL-10 cytokine (Human IL-10 PEPROTECH 200-10-10UG) was added to each well for a final concentration of 10 ng/mL, the well in which neither compound nor cytokine was added was designated as 0% control well. The culture was continued for 24 hours before testing.
Cell lysate was prepared by using Cell Culture Lysis reagent and transferred to 96-well plate with half-well clear bottom. The green fluorescent protein signal value was detected at Ex485/Em520 using Tecan microplate reader, and recorded. After adding to each well the luciferase substrate from Luciferase Assay System, the signal value of luciferase-substrate reaction was immediately detected at 560 nm using Tecan microplate reader, and recorded.
Using Microsoft Excel software, the signal value of luciferase-substrate reaction of each well was calculated and calibrated based on the signal value of green fluorescent protein of each well. […]

For experiment [2], the system named is IL-2-induced JAK1/JAK3 signal pathway. The experiment can be described thus: IL-2-induced proliferation of KHYG-1 cells (JAK1/JAK3 signal). Conditions: Homo sapiens; KHYG-1 cell proliferation, IL-2 10 ng/mL, 72 hours; read-out: Inhibition activity IC50 on IL-2-induced JAK1/JAK3 signal pathway. The gist of the method: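 KHYG-1 NK lymphoma cells were cultured with IL-2 and test compound at various doses for 72 h at 37 °C and 5% CO2, and proliferation was read with alamarBlue fluorescence. Inhibition was normalized to wells without compound or cytokine (0%) and IL-2 wells without compound (100%), and C50 was derived from the dose-inhibition data.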

The subject of experiment [3] is EPO-induced JAK2 signal pathway. Put plainly: EPO-induced proliferation of UT-7 cells (JAK2 signal). As to conditions: Homo sapiens, UT7; UT-7 cell proliferation, EPO 10 ng/mL, 72 hours; read-out: Inhibition activity IC50 on EPO-induced JAK2 signal pathway. The essentials:
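UT-7 cells (15000/well) stimulated with 10 ng/mL human recombinant EPO plus compound at final 0, 100, 1000 or 10000 nM, 72 h at 37° C., 5% CO2. Proliferation by alamarBlue fluorescence (Ex530/Em590); inhibition normalised to no-cytokine/no-compound (0) and EPO-only (100) wells, […] derived from dose-inhibition.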

With `CCONC(=O)c1cnc(NC(=O)C2CC2)cc1Nc1cc(F)cc(-c2ncc(C)cn2)c1OC` [Example 226, 6-(cyclopropylcarboxamido)-N-ethoxy-4-((5-fluoro-2-(methoxy)-3-(5-methylpyrimidin-2-yl)phenyl)amino)nicotinamide], the IC50 in experiment [1] is 0.000538 µM; in experiment [2], > 10 µM; in experiment [3], > 10 µM.
With `CONC(=O)c1cnc(Nc2cccc(F)n2)cc1Nc1cccc(F)c1N(C)S(C)(=O)=O` [Example 38, 4-((3-fluoro-2-(N-methylmethanesulfonamido)phenyl)amino)-6-((6-fluoropyridin-2-yl)amino)-N-methoxy nicotinamide], the IC50 in experiment [1] was 0.000506 µM; in experiment [2], > 10 µM; in experiment [3], > 10 µM.
In the case of `CCONC(=O)c1cnc(Nc2cc(C)nc(C)n2)cc1Nc1ccc(-c2ccnn2C)cc1OC` [Example 207], the figures for the IC50 in experiment [1], in experiment [2] and in experiment [3] were 0.00108 µM, > 10 µM and > 10 µM, respectively.
In the case of `C#Cc1ccc(Nc2cc(Nc3cc(C)nc(C)n3)ncc2C(=O)NOCC)c(N(C)S(C)(=O)=O)c1` [Example 127, 6-((2,6-dimethylpyrimidin-4-yl)amino)-N-ethoxy-4-((4-ethynyl-2-(N-methylmethanesulfonamido)phenyl)amino)nicotinamide], the values for the IC50 in experiment [1], in experiment [2] and in experiment [3] were 0.000776 µM, > 10 µM and > 10 µM, respectively.
`CCONC(=O)c1cnc(Nc2cc(C)nc(C)n2)cc1Nc1ccc(OC)cc1N(C)S(=O)(=O)C1CC1` [Example 174, 6-((2,6-dimethylpyrimidin-4-yl)amino)-N-ethoxy-4-((4-methoxy-2-(N-methylcyclopropylsulfonamido)phenyl)amino)nicotinamide]: the IC50 in experiment [1] was 0.000784 µM; in experiment [2], > 10 µM; in experiment [3], > 10 µM.
On to `CCONC(=O)c1cnc(Nc2cnccn2)cc1Nc1cc(F)c(C2CC2)cc1N(C)S(C)(=O)=O` [Example 167, 4-((4-cyclopropyl-5-fluoro-2-(N-methylmethanesulfonamido)phenyl)amino)-N-ethoxy-6-(pyrazin-2-ylamino)nicotinamide], for which the IC50 was 0.00151 µM in experiment [1], > 10 µM in experiment [2] and > 10 µM in experiment [3].
For `CCONC(=O)c1cnc(Nc2nc(C)cs2)cc1Nc1cc(F)c(C2CC2)cc1N(C)S(C)(=O)=O` [Example 170, 4-((4-cyclopropyl-5-fluoro-2-(N-methylmethanesulfonamido)phenyl)amino)-N-ethoxy-6-((4-methylthiazol-2-yl)amino)nicotinamide], the IC50 is 0.0015 µM in experiment [1], > 10 µM in experiment [2] and > 10 µM in experiment [3].
Take `CCONC(=O)c1cnc(Nc2cc(C)nc(C)n2)cc1Nc1ccc(N2CCCCC2)cc1N(C)S(C)(=O)=O` [Example 132, 6-((2,6-dimethylpyrimidin-4-yl)amino)-N-ethoxy-4-((2-(N-methylmethanesulfonamido)-4-(piperidin-1-yl)phenyl)amino)nicotinamide]: the IC50 is 0.000977 µM in experiment [1], > 10 µM in experiment [2] and > 10 µM in experiment [3].
As to `CCONC(=O)c1cnc(Nc2ccc(F)cn2)cc1Nc1ccc(C2CC2)cc1N(C)S(C)(=O)=O` [Example 95, 4-((4-cyclopropyl-2-(N-methylmethanesulfonamido)phenyl)amino)-N-ethoxy-6-((5-fluoropyridin-2-yl)amino)nicotinamide], the IC50 in experiment [1] is 0.00228 µM; in experiment [2], > 10 µM; in experiment [3] it was > 10 µM.
For the compound `CCONC(=O)c1cnc(Nc2ccnc(C)n2)cc1Nc1cccc(-c2ncc(F)cn2)c1OC` [Example 243, N-ethoxy-4-((3-(5-fluoropyrimidin-2-yl)-2-methoxyphenyl)amino)-6-((2-methylpyrimidin-4-yl)amino)nicotinamide], the IC50 is 0.000507 µM in experiment [1], > 10 µM in experiment [2] and > 10 µM in experiment [3].
